# System: human iPS cells
# Experiment: treatment efficiency by flow cytometry (positive percentage of CD75)
# Format: cell-based
# Protocol: The culture and the treatment were performed in the same manner as in Example 1 except that the treatment was performed under conditions in which a concentration of PD0325901 was 0.3 to 1.0 μmol/L, and subculture was performed for about 2 weeks after day 9. The completion of the treatment in Example 1 was evaluated by a positive percentage of a cell surface marker CD75. The cultured human iPS cells were detached with TrypLE™ Select, and stained with Alexa Fluor 647 Mouse Anti-Human CD75 antibody. A positive percentage of CD75 was analyzed by a flow cytometer Attune NxT.
compound,measurement,setting,value
"O=C(NOC[C@H](O)CO)c1ccc(F)c(F)c1Nc1ccc(I)cc1F [PD0325901, N-[(2R)-2,3-dihydroxypropoxy]-3,4-difluoro-2-[(2-fluoro-4-iodophenyl)amino]-benzamide]",CD75,"any of the cell lines, PD0325901 within the range of 0.3 to 0.5 μmol/L",not positive
same,positive percentage of CD75,"three lines of human iPS cells, PD0325901 at 0.3 to 1.0 μmol/L",increase in positive percentage of CD75

# — patent US20200362302A1, “METHOD FOR PRODUCING CELL” (FUJIFILM Corporation, priority 2018, published 2020)
